Tests used:
[1] = test system: multiple melanoma cell lines; test: Flow cytometry analysis of DNA content, multiple melanoma cell lines; assay type: cell-based, human
Procedure: (§1) Melanoma cells were treated with the indicated concentrations of 1-benzyl I3C in triplicates every 24 hours and harvested at the end of 24, 48 or 72 hours for cell cycle analysis. The DNA content of propidium iodide stained nuclei from harvested cells were determined by flow cytometry. Briefly, cells were hypotonically lysed in […] of DNA staining solution (0.5 mg/mL propidium iodide, 0.1% sodium citrate, and 0.05% Triton-X 100). Emitted fluorescence from the nuclear of wavelengths more than 585 nm was measured with a Coulter Elite instrument with laser output adjusted to deliver 15 mW at 488 nm. Ten thousand nuclei were analyzed from each sample at a rate of 300-500 nuclei/second. The percentage of cells within the G1, S, and G2/M phases of the cell cycle were determined by analysis with the Multicycle computer program provided by Phoenix Flow Systems in the Cancer Research Laboratory Microchemical Facility of the University of California, Berkeley.

CDK 2, 4, 6 = test: Western blot of key cell cycle regulators; assay type: cell-based, human; details: melanoma cell lines, 1-benzyl I3C, 24, 48, 72 hours
Procedure: (§2) Western Blot analyses of samples electrophoretically fractionated on 12% acrylamide gels were carried out as previously described (Wagle et al., J. Clin. Oncol. 2011. 29(22):3085-3096; Nguyen et al., Chem. Biol. Interact. 2010. 186(3):255-266). Enhanced chemiluminescence (ECL) Lightening reagents were used to visualize the primary antibody bound protein bands in nitrocellulose membranes and the results captured on ECL Autoradiography Film (GE Healthcare, Piscataway, N.J.). The western blots employed the following primary antibodies: mouse anti-MITF-M (Thermo-scientific), mouse anti-HSP 90 (BD Biosciences), mouse anti-CDK2, rabbit anti-CDK4, rabbit anti-CDK-6, mouse anti-rabbit BRAF, goat anti-LEF-1, rabbit anti-AXIN, mouse anti-BCL2, (Santa Cruz), rabbit anti-P21, mouse anti-Cyclin D1, rabbit anti-MEK-p, rabbit anti-MEK1/2, rabbit anti-GSK3β rabbit anti-LRP6, rabbit anti-LRP6-phospho (Cell signaling), mouse anti-β-catenin (Invitrogen).

phosphorylated MEK = test: Western blot of phosphorylated MEK; assay type: cell-based, human; details: 200 μM I3C, 72 hour time course
Procedure: Western Blot analyses of samples electrophoretically fractionated on 12% acrylamide gels were carried out as previously described (Wagle et al., J. Clin. Oncol. 2011. 29(22):3085-3096; Nguyen et al., Chem. Biol. Interact. 2010. 186(3):255-266). […] The western blots employed the following primary antibodies: mouse anti-MITF-M (Thermo-scientific), mouse anti-HSP 90 (BD Biosciences), mouse anti-CDK2, rabbit anti-CDK4, rabbit anti-CDK-6, mouse anti-rabbit BRAF, goat anti-LEF-1, rabbit anti-AXIN, mouse anti-BCL2, (Santa Cruz), rabbit anti-P21, mouse anti-Cyclin D1, rabbit anti-MEK-p, rabbit anti-MEK1/2, rabbit anti-GSK3β rabbit anti-LRP6, rabbit anti-LRP6-phospho (Cell signaling), mouse anti-β-catenin (Invitrogen).

CDK4 = test: Western blot of CDK4; assay type: cell-based, human; details: G-361 cells, 48 hours; 200 μM I3C, 10 μM Vemurafenib or 10 μM U0126
Procedure: as §2

MITF-M = test: Immunofluorescence of tumor xenograft sections for MITF-M; assay type: in vivo, human; details: I3C 200 mg/kg, terminal sacrifice, relative to vehicle
Procedure: (§3) Approximately 1 million G361 melanoma cells in a total volume of 0.1 ml of Matrigel were injected subcutaneously into each lateral flank of NIH III athymic nude mice. The resulting tumors were allowed to grow to a mean starting volume of 146±10 mm^3. The animals were then randomized into two groups; a vehicle control group that was treated with DMSO and an […] treated group that were injected daily with 200 mg/kg body weight of […]. The resulting tumor volumes were measured every other day for four weeks using calipers. The tumor volumes were calculated using the standard formula: […], and changes in tumor volumes were calculated using the formula: 100+{(Tf-Ti)/Ti×100}, where Tf is the final mean tumor volume and Ti is the initial mean tumor volume. At terminal sacrifice, tumor xenografts were harvested, and a portion of each tumor was fixed in 4% para-formaldehyde for 1 hour at room temperature, followed by a phosphate-buffered saline (PBS) wash and subsequently immersed in 3% sucrose overnight at 4° C. The resulting tissues were embedded in OCT and 10 μm thin sections were taken for immunofluorescence studies.

DM738 cells = test: Flow cytometry analysis of DNA content, DM738; assay type: cell-based, human; details: maximal dose of 200 μM I3C
Procedure: as §1, with “I3C” left out

BRN2 = test: Chromatin immunoprecipitation, BRN2 at MITF-M promoter; assay type: cell-based, human; details: G-361 cells, 200 μM I3C, 48 hours
Procedure: […] Proteins were crosslinked to DNA by the addition of formaldehyde at 2.5% of the final concentration for 5 minutes at room temperature to cultured cells. Fixation was quenched with glycine for a final concentration of 125 mmol/1 for 5 minutes. Harvested cells were sonicated and the chromatin was immunoprecipitated overnight and 15 μl of mouse anti-Brn2 antibodies (Santa Cruz Biotechnology) was added to the cell lysates to immunoprecipitate the chromatin-bound Brn2 protein. A fragment of the MITF-M promoter (−170+120) containing the BRN2 binding site (−53 to −27) was amplified using the primers—MITF-M Forward: 5′-CGTCACTTAAAAAGGTACCTTTATATTTATG-3′ (SEQ ID NO:7) MITF-M Reverse: 5′-TGT TTTAGC TAGCACCAATCCAGTGAGAGACGG-3′ (SEQ ID NO:8) by cycling 36 times (95° C., 30 s/52° C. 30 s/72° C., 30 s) with a 72° C., 10 min extension. The PCR products were electrophoretically fractionated on a 1.5% agarose gel and visualized using a transilluminator.

phosphorylated Erk/MAPK = test: Immunofluorescence of tumor xenograft sections for ERK-p; assay type: in vivo, human; details: I3C treated vs untreated animals
Procedure: as §3

SMILES	time to significant G1 cell cycle arrest ([1]; 20 μM 1-benzyl I3C, all the cell lines)	G1 cell cycle arrest ([1]; varying doses of 1-benzyl I3C, 48 hours)	levels of key cell cycle regulators (CDK 2, 4, 6)	phosphorylated MEK levels (phosphorylated MEK; G-361 and DM738 cells)	phosphorylated MEK levels (phosphorylated MEK; SK-MEL-2 cells)	CDK4 protein levels (CDK4)	MITF-M protein in tumor xenograft sections (MITF-M)	G1 cell cycle arrest (DM738 cells)	endogenous BRN2 binding to the MITF-M promoter (BRN2)	level of phosphorylated Erk/MAPK in tumor xenografts (phosphorylated Erk/MAPK)
OCc1cn(Cc2ccccc2)c2ccccc12 [1-benzyl I3C, 1-benzyl indole-3-carbinol]	≤ 24 h	significant G1 cell cycle arrest	downregulation of key cell cycle regulators like CDK 2, 4, 6							
OCc1c[nH]c2ccccc12 [I3C, indole-3-carbinol]				strongly down regulated	no effect	down regulated	strong down-regulation of MITF-M protein	significant G1 cell cycle arrest	significantly down regulated endogenous BRN-2 interactions with this promoter	strongly down regulated

— patent US20180369195A1, “COMBINATION THERAPY FOR TREATMENT OF MELANOMA” (The Regents of the University of California, priority 2015, published 2018)
